Consider nine compounds from PubChem BioAssay (NCI).

“And” between values parts separate entries of the source, which are not always exact repeats. Equal values may be shown once.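 Where inhibition never reached the appropriate level, the endpoint shown equals the highest concentration tested. Otherwise, values were interpolated linearly from a five-concentration, 48-hour dose response in 96-well plates. GI50: concentration for 50% inhibition of growth. At the TGI there is no net growth.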 Where only a bound is given, the exact number is not on record here.

Among the test systems are EKVX NSCLC; HCT-116 colon; HL-60(TB) leukemia; HOP-92 NSCLC; NCI-H522 lung; OVCAR-4 ovarian; OVCAR-8 ovarian; SF-295 CNS; SNB-75 CNS; UACC-257 melanoma.
Holding throughout (test): DTP human tumour cell line panel, 48 h

A word on the GI50: it is the concentration that inhibits growth by half. A word on the TGI: it is the concentration giving total growth inhibition. Regarding `Cc1cc2c(C(C)C)c(O)c(O)cc2c(O)c1-c1c(C)cc2c(C(C)C)c(O)c(O)cc2c1O`, the GI50 is 20.8 µM in the experiment on EKVX NSCLC; 3.98 µM in the experiment on HCT-116 colon; 9.07 µM in the experiment on HL-60(TB) leukemia; 3.13 µM in the experiment on HOP-92 NSCLC; 10.1 µM with NCI-H522 lung; 14 µM in the experiment on OVCAR-4 ovarian. Also, the GI50 with OVCAR-8 ovarian was 15.2 µM; with SF-295 CNS, 22.5 µM; with SNB-75 CNS it was 24.5 µM; in the experiment with UACC-257 melanoma it was 26.6 µM. Also, the total growth inhibition concentration (TGI) came out at 68.6 µM with EKVX NSCLC; 14 µM in the experiment on HCT-116 colon; 34.1 µM in the experiment with HL-60(TB) leukemia; 17.4 µM in the experiment on HOP-92 NSCLC; 24.5 µM in the experiment with NCI-H522 lung; 33.8 µM in the experiment on OVCAR-4 ovarian. In addition, the total growth inhibition concentration (TGI) was 41.1 µM with OVCAR-8 ovarian, 58 µM in the experiment on SF-295 CNS, 60 µM with SNB-75 CNS and 65 µM in the experiment on UACC-257 melanoma.

Regarding `COc1c(O)c2c3c(cc(C)cc3c1C(C)C)OC2`, the TGI in the experiment with EKVX NSCLC, with HCT-116 colon, in the experiment on HL-60(TB) leukemia, in the experiment on HOP-92 NSCLC, with NCI-H522 lung and in the experiment with OVCAR-4 ovarian was more than 100 µM each time. Besides, the TGI in the experiment with OVCAR-8 ovarian, with SF-295 CNS, with SNB-75 CNS and with UACC-257 melanoma was more than 100 µM in each case.

In the case of `COc1ccc2c(c1)c(CC(=O)[Se]C)c(C)n2C(=O)c1ccc(Cl)cc1`, the GI50 in the experiment on EKVX NSCLC was more than 0.229 µM; in the experiment on HCT-116 colon it was more than 0.204 µM; with HL-60(TB) leukemia it was more than 0.398 µM; in the experiment with HOP-92 NSCLC, more than 0.336 µM; in the experiment with NCI-H522 lung, more than 0.371 µM; in the experiment with OVCAR-4 ovarian, more than 0.443 µM. Besides, the GI50 with OVCAR-8 ovarian was more than 0.346 µM; with SF-295 CNS, more than 0.365 µM; with UACC-257 melanoma, more than 0.352 µM. For the same compound, the TGI with EKVX NSCLC was more than 0.459 µM; in the experiment on HCT-116 colon, more than 0.543 µM; with HL-60(TB) leukemia, more than 0.779 µM; with HOP-92 NSCLC, more than 0.533 µM; in the experiment on NCI-H522 lung, more than 0.677 µM; in the experiment on OVCAR-4 ovarian it was more than 1 µM. Further, the TGI in the experiment with OVCAR-8 ovarian is more than 0.733 µM; in the experiment on SF-295 CNS, more than 0.58 µM; in the experiment on SNB-75 CNS, more than 0.238 µM; in the experiment on UACC-257 melanoma, more than 0.689 µM.

In the case of `C#CC#CC#CC#CC#CC#CC#CC#CCC1OCC(COC(=O)O[C@@H](C(=O)O[C@H]2C[C@@]3(O)[C@@H](OC(=O)c4ccccc4)[C@@H]4[C@]5(OC(C)=O)CO[C@@H]5C[C@H](O)[C@@]4(C)C(=O)[C@H](OC(C)=O)C(=C2C)C3(C)C)[C@@H](NC(=O)c2ccccc2)c2ccccc2)O1` (some centres not stated), the GI50 is more than 26.3 µM in the experiment with EKVX NSCLC; 0.0533 µM in the experiment with HCT-116 colon; 0.099 µM in the experiment on HL-60(TB) leukemia; 0.166 µM with NCI-H522 lung; more than 33.3 µM in the experiment on OVCAR-4 ovarian; 0.187 µM in the experiment on OVCAR-8 ovarian. The figures for the GI50 in the experiment on SF-295 CNS, in the experiment on SNB-75 CNS and in the experiment with UACC-257 melanoma were 0.581 µM, 0.0244 µM and more than 8.95 µM, respectively. Besides, the TGI in the experiment with EKVX NSCLC, in the experiment on HCT-116 colon, with HOP-92 NSCLC, in the experiment on NCI-H522 lung, in the experiment with OVCAR-4 ovarian and in the experiment with OVCAR-8 ovarian was more than 33.3 µM each time. In addition, the TGI with SF-295 CNS is more than 11.6 µM; in the experiment on SNB-75 CNS, 0.189 µM; in the experiment with UACC-257 melanoma it was more than 33.3 µM.

Take `Cc1[nH]c2ccccc2c1CCCO`: the GI50 with EKVX NSCLC, in the experiment with HCT-116 colon, in the experiment with HL-60(TB) leukemia, with HOP-92 NSCLC, in the experiment with NCI-H522 lung and in the experiment on OVCAR-4 ovarian was more than 100 µM throughout. For the same compound, the GI50 with OVCAR-8 ovarian, in the experiment on SF-295 CNS, in the experiment with SNB-75 CNS and in the experiment with UACC-257 melanoma was more than 100 µM each time. Further, the TGI with EKVX NSCLC, in the experiment on HCT-116 colon, in the experiment on HL-60(TB) leukemia, with HOP-92 NSCLC, in the experiment with NCI-H522 lung and in the experiment with OVCAR-4 ovarian was more than 100 µM in each case. The TGI in the experiment with OVCAR-8 ovarian, in the experiment with SF-295 CNS, with SNB-75 CNS and in the experiment with UACC-257 melanoma was more than 100 µM each time.

Take `NNC(=O)C1CCC(=O)N1S(=O)(=O)c1ccccc1` (configuration not stated): the TGI in the experiment with EKVX NSCLC, in the experiment on HCT-116 colon, with HL-60(TB) leukemia, in the experiment on HOP-92 NSCLC, with NCI-H522 lung and in the experiment with OVCAR-4 ovarian was more than 100 µM throughout. Moreover, the TGI in the experiment with OVCAR-8 ovarian, in the experiment with SF-295 CNS, with SNB-75 CNS and with UACC-257 melanoma was more than 100 µM in each case.

For the compound `COc1cc2c[n+](C)c3c4cc(OC)c(OC(C)C)cc4ccc3c2cc1OC`, the TGI in the experiment with EKVX NSCLC was more than 100 µM; with HCT-116 colon, more than 100 µM; in the experiment with HL-60(TB) leukemia, 91.9 µM; with HOP-92 NSCLC, more than 100 µM; in the experiment with NCI-H522 lung, 69.3 µM; in the experiment with OVCAR-4 ovarian, more than 100 µM. Besides, the concentration for total growth inhibition (TGI) in the experiment on OVCAR-8 ovarian, in the experiment with SF-295 CNS, in the experiment with SNB-75 CNS and in the experiment on UACC-257 melanoma was more than 100 µM throughout.

As to `N#C/C(=C\c1ccsc1)c1nc2ccccc2o1`, the GI50 was 67.5 µM with EKVX NSCLC; 35.7 µM with HCT-116 colon; more than 100 µM in the experiment on HL-60(TB) leukemia; 14.4 µM in the experiment on HOP-92 NSCLC; 50.6 µM with NCI-H522 lung; more than 100 µM with OVCAR-4 ovarian. Moreover, the GI50 in the experiment with OVCAR-8 ovarian is more than 100 µM; in the experiment with SF-295 CNS, 31.5 µM; with SNB-75 CNS it was 24.5 µM; in the experiment with UACC-257 melanoma, more than 100 µM. In addition, the TGI with EKVX NSCLC is more than 100 µM; in the experiment with HCT-116 colon it was more than 100 µM; with HL-60(TB) leukemia it was more than 100 µM; in the experiment with HOP-92 NSCLC, 42.8 µM; in the experiment with NCI-H522 lung it was more than 100 µM; in the experiment on OVCAR-4 ovarian it was more than 100 µM. For the same compound, the TGI in the experiment with OVCAR-8 ovarian is more than 100 µM; with SF-295 CNS it was more than 100 µM; with SNB-75 CNS, 65.5 µM; in the experiment with UACC-257 melanoma, more than 100 µM.

As for `C[C@@]12CCC(=O)c3coc(c31)C(=O)c1cc3c(cc12)C(=O)C=CC3=O`, the GI50 with EKVX NSCLC, with HCT-116 colon, with HL-60(TB) leukemia, with HOP-92 NSCLC, in the experiment with NCI-H522 lung and in the experiment with OVCAR-4 ovarian was more than 1 µM in each case. For the same compound, the GI50 with OVCAR-8 ovarian, with SF-295 CNS, with SNB-75 CNS and with UACC-257 melanoma was more than 1 µM in each case. Moreover, the TGI was > 1 µM and 48.6 µM in the experiment with EKVX NSCLC; > 1 µM and 28.7 µM with HCT-116 colon; > 1 µM and 5.5 µM in the experiment on HL-60(TB) leukemia; > 1 µM and 19.6 µM with HOP-92 NSCLC; > 1 µM and 22.1 µM with NCI-H522 lung; > 1 µM and 32.1 µM in the experiment on OVCAR-4 ovarian. Also, the TGI in the experiment on OVCAR-8 ovarian is > 1 µM and 30.2 µM; in the experiment on SF-295 CNS, > 1 µM and 31.1 µM; in the experiment on SNB-75 CNS, > 1 µM and 43.9 µM; with UACC-257 melanoma it was > 1 µM and 23.8 µM.
